The results in this text go back to PubChem BioAssay AID1996.

Converted amounts (≈) assume the structure as drawn. Where only a bound is given, the exact number is not on record here.

The conditions of the data set: buffer; pH 7.4; 200.0 µM.
By solubility (kinetic) is commonly meant solubility judged after dilution from a stock solution rather than from solid. In the case of `CCCC(=O)Nc1sc2c(c1C(=O)OCC)CC(C)(C)OC2`, the kinetic solubility was determined as 4.6 µg/mL (≈ 14.1 µM).

Regarding `COC(=O)c1sccc1NC(=S)OC`, the kinetic solubility amounted to 6.1 µg/mL (≈ 26.4 µM).

Consider `O=S(=O)(c1ccccc1)N(CC1CO1)c1ccccc1` (stereo not drawn), for which the solubility (kinetic) is greater than 43.4 µg/mL.

The compound `O=C(COC(=O)c1cc(F)cc(F)c1)Nc1cccnc1Cl` showed a solubility (kinetic) of 10.9 µg/mL (≈ 33.4 µM).

The compound `CCCCCC(=O)NC(=S)NC1C2CC3CC(C2)CC1C3` (stereo not drawn) had a kinetic solubility of 28.3 µg/mL (≈ 91.7 µM).

`CCOC(=O)N1CCN(C(=O)c2ccc(OC)cc2)CC1` gave a kinetic solubility greater than 43.9 µg/mL.

`O=C(Nc1ccccn1)c1ccc(Cl)s1`: the solubility (kinetic) was determined as 30.9 µg/mL (≈ 129 µM).

As for `Cc1cccc(C(=O)Nc2cccc(C(=O)Nc3cc(C)ccn3)c2)c1`, the solubility (kinetic) came to 0.9 µg/mL (≈ 2.61 µM).

Turning to `O=C1N/C(=N\c2ccccn2)SC1Cc1ccc(Cl)cc1` (stereo not drawn), the solubility (kinetic) was less than 0.2 µg/mL.

`CSC1=N/C(=C/c2cccnc2)C(=O)N1Cc1ccccc1` displayed a kinetic solubility of 5.2 µg/mL (≈ 16.8 µM).

`O=C(NCCc1ccc(Cl)cc1)c1ccc(Br)s1`: the kinetic solubility worked out at 1.2 µg/mL (≈ 3.48 µM).

In the case of `O=C(NC1CC1)c1cc(Cl)nc2ccccc12`, the kinetic solubility was greater than 37 µg/mL.

For the compound `Fc1cccc(NC(=S)Nc2cccc3ccccc23)c1`, the solubility (kinetic) stood at 19.6 µg/mL (≈ 66.1 µM).

On to `Cc1cccc(C(=O)NCc2ccco2)c1`, for which the kinetic solubility was greater than 32.3 µg/mL.

Turning to `Cc1csc(NC(=O)c2ccc3c(c2)OCO3)n1`, the solubility (kinetic) is 31.4 µg/mL (≈ 120 µM).

In turn, `Cc1ccc([N+](=O)[O-])cc1NC(=O)Cc1ccc(F)cc1` came in with a solubility (kinetic) of less than 0.3 µg/mL.

In turn, `CC(=O)Nc1ccc(-c2csc(Nc3ccccn3)n2)cc1` yielded a kinetic solubility of 0.5 µg/mL (≈ 1.61 µM).

In the case of `Cc1cc(C)c(C#N)c(SCC(=O)C2CC2)n1`, the solubility (kinetic) is 3.6 µg/mL (≈ 14.6 µM). This solubility kinetic lies about 7.2-fold higher than the previous one.

Compound `Cc1cc(SCc2cccc(Cl)c2)nc(=O)[nH]1` gave a solubility (kinetic) of 39.9 µg/mL (≈ 150 µM).

Compound `COCCn1c(-c2ccc(F)cc2)nc2oc3cc(OC)ccc3c(=O)c2c1=O` gave a solubility (kinetic) of 21.1 µg/mL (≈ 53.2 µM).

For `O=C1CSC(c2cccc(O)c2)N1Cc1ccccc1` (stereo not drawn), the kinetic solubility is greater than 42.8 µg/mL.

For `CCOC(=O)Cn1nc(C)c(NC(=O)COc2cccc(Cl)c2)c1C`, the solubility (kinetic) is greater than 54.9 µg/mL.

Take `O=C(/C=C/c1ccco1)Oc1cccc2cccnc12`: the kinetic solubility was 27.1 µg/mL (≈ 102 µM).

As for `Cc1oncc1-c1csc(-c2ccccc2Cl)n1`, the kinetic solubility came to 0.6 µg/mL (≈ 2.17 µM).

`Cc1ccsc1C1C(C#N)=C(N)OC2=C1C(=O)CC(C)C2` (stereo not drawn) returned a kinetic solubility of 38.7 µg/mL (≈ 129 µM).

The compound `CCOC(=O)c1ccc2c(c1)N(CC)C(=O)c1ccccc1S2` came in with a kinetic solubility of 13.2 µg/mL (≈ 40.3 µM). This solubility kinetic is about 2.9-fold lower than that of the compound before.

`Nc1ccc(OCCc2ccccc2)cc1` returned a kinetic solubility of 28.3 µg/mL (≈ 133 µM).

Consider `O=C(C(=O)N1CCCC1)c1c(-c2ccccc2)[nH]c2ccccc12`, for which the solubility (kinetic) was greater than 47.8 µg/mL.

In turn, `Cc1cc(NC(=O)c2coc(=O)c(Br)c2)ccc1C(C)C` showed a kinetic solubility of 2.5 µg/mL (≈ 7.14 µM).

Compound `CCOc1ncccc1C(=O)N(CCC(C)C)c1c(N)n(Cc2ccccc2)c(=O)[nH]c1=O` registered a solubility (kinetic) of 3.3 µg/mL (≈ 7.31 µM).

Compound `CN1CCN(c2ccc(NC(=O)c3cc4ccccc4o3)cc2)CC1` yielded a kinetic solubility of 19.6 µg/mL (≈ 58.4 µM).

The compound `CCOc1ccc(NC(=O)CN2C(=O)CSC2=O)cc1` gave a solubility (kinetic) greater than 44.1 µg/mL.

In turn, `COc1ccc(S(=O)(=O)Nc2cccnc2)cc1` displayed a kinetic solubility greater than 39.6 µg/mL.

In the case of `COc1ccc(NC(=S)N2CCc3ccccc32)cc1OC`, the solubility (kinetic) was greater than 47.2 µg/mL.

As for `CC(=O)c1ccc(-n2ccnc2)cc1`, the solubility (kinetic) is greater than 27.9 µg/mL.

The compound `O=S(=O)(NC1CCCCCCC1)c1ccccc1F` returned a kinetic solubility of 42.5 µg/mL (≈ 149 µM).

Compound `O=C(Nc1ccc2c(c1)OCO2)C1CC1` had a kinetic solubility greater than 30.8 µg/mL.

On to `CN(C)c1nc(N)ncc1-c1ccc(Oc2ccccc2)cc1`, for which the solubility (kinetic) is less than 0.2 µg/mL.

With `CCN(Cc1ccccc1)C(=O)CSc1nncn1C`, the kinetic solubility was greater than 43.6 µg/mL.

Take `COCCn1c(SCc2ccccc2)nc2c1c(=O)[nH]c(=O)n2C`: the kinetic solubility was greater than 52 µg/mL.

Turning to `Clc1ccc(CN2CCN(c3ccccc3)CC2)cn1`, the solubility (kinetic) is 21 µg/mL (≈ 73 µM).

On to `Cc1ccc(-n2c(=O)[nH]c3ncccc3c2=O)cc1`, for which the kinetic solubility amounted to 6.9 µg/mL (≈ 27.2 µM). Compared with the last compound, the solubility kinetic is about 3-fold lower.

`N#Cc1ccc(NCCc2ccccn2)c([N+](=O)[O-])c1` gave a solubility (kinetic) greater than 40.2 µg/mL.

The compound `Fc1ccc(NC(=S)Nc2cccc3ccccc23)cc1` yielded a kinetic solubility of 16.7 µg/mL (≈ 56.3 µM).

Take `Cc1ccc(C(=O)NCCNS(=O)(=O)c2ccccc2[N+](=O)[O-])cc1`: the solubility (kinetic) is greater than 54.5 µg/mL.

The compound `NC(CSCc1ccccc1Cl)C(=O)O` (stereo not drawn) displayed a kinetic solubility greater than 36.9 µg/mL.

`CC(NC(=O)CCC(=O)c1ccc(F)cc1)C1CC2CCC1C2` (stereo not drawn) had a solubility (kinetic) of 12.5 µg/mL (≈ 39.4 µM).

In turn, `Cc1cccc(OCC(=O)Nc2ccncc2)c1C` yielded a kinetic solubility of 37.8 µg/mL (≈ 147 µM).

As to `O=C(Nc1cccc(NC(=O)C2CCCO2)c1)C1CCCO1` (stereo not drawn), the kinetic solubility was greater than 45.7 µg/mL.

`Cc1ccc(C(CC(=O)N2CCCCC2)c2ccccc2)c(O)c1C` (stereo not drawn) registered a solubility (kinetic) of 3.8 µg/mL (≈ 11.3 µM).

As for `CCOc1ccccc1NC(=O)Cc1cccs1`, the kinetic solubility was 33.6 µg/mL (≈ 129 µM).

Consider `COc1ccccc1C1N=C(c2ccccc2C)NO1` (stereo not drawn), for which the kinetic solubility came to 24 µg/mL (≈ 89.4 µM).

Consider `Cn1cc(/C=C2\C(=O)NC(=O)N(c3ccccc3)C2=O)c2ccccc21`, for which the solubility (kinetic) came out at 1.6 µg/mL (≈ 4.63 µM).
